# Like-named read-outs stand apart in the source and are kept apart here.
# Columns and labels:
# Type in all cases: cell-based
# A. baumannii (Ab) AR# 83 = test: MIC of meropenem in combination with compound, CDC carbapenem resistant strain
# Description: (§1) EXAMPLE 2: Six compounds were assessed for their activity in combination with meropenem against carbapenem resistant strains of A. baumannii (Ab), K. pneumoniae (Kp), and E. coli acquired from the Center for Disease Control (CDC). AR #—assigned AR-BANK number from the CDC.
# A. baumannii (Ab) AR# 35 = test: as above
# Description: as §1
# [1] = tested on: K. pneumoniae (Kp) AR# 40; test: as above; details: 64 μM of 2-amino imidazole compound
# Description: as §1
# A. baumannii (Ab) AR# 33 = test: as above
# Description: as §1
# A. baumannii (Ab) AR# 37 = test: as above
# Description: as §1
# A. baumannii (Ab) AR# 88 = test: as above
# Description: as §1
# E. coli AR# 55 = test: as above
# Description: as §1
# [2] = tested on: K. pneumoniae (Kp) AR# 68; test: as above; details: 32 μM of 2-amino imidazole compound
# Description: as §1
# A. baumannii (Ab) AR# 63 = test: as above
# Description: as §1
# A. baumannii (Ab) AR# 56 = test: as above
# Description: as §1
# A. baumannii (Ab) AR# 45 = test: as above
# Description: as §1
# [3] = tested on: K. pneumoniae (Kp) AR# 41; test: as above; details: 64 μM of 2-amino imidazole compound
# Description: as §1
# A. baumannii (Ab) AR# 52 = test: as above
# Description: as §1
# A. baumannii (Ab) AR# 70 = test: as above
# Description: as §1
# [4] = tested on: K. pneumoniae (Kp) AR# 98; test: as above
# Description: as §1
# E. coli AR# 48 = test: as above
# Description: as §1
# A. baumannii (Ab) AR# 36 = test: as above
# Description: as §1
# A. baumannii AB5075 = test: MIC of carbapenems in presence and absence of 2-aminoimidazole compounds; details: Acinetobacter baumannii, no 2-AI compound (None)
# Excerpt: (§2) The minimal inhibitory concentration (MIC) values of imipenem (I); meropenem (M) and doripenem (D) in the presence and absence of 2-aminoimidazole compounds are provided in Table 1. The concentration of each compound used in μM in the MIC assay is shown in parentheses.
# [5] = tested on: K. pneumoniae ATCC BAA-2146; test: as above; details: Klebsiella pneumoniae, no 2-AI compound (None)
# Excerpt: as §2
# [6] = tested on: K. pneumoniae ATCC BAA-1705; test: as above; details: Klebsiella pneumoniae, no 2-AI compound (None)
# Excerpt: as §2
# [7] = tested on: A. baumannii ATCC BAA-1605; test: as above; details: Acinetobacter baumannii, no 2-AI compound (None)
# Excerpt: as §2
# [8] = 15 μM of 2-amino imidazole compound
# [9] = 7 μM of 2-amino imidazole compound
# [10] = 16 μM of 2-amino imidazole compound
# [11] = 32 μM of 2-amino imidazole compound
# [12] = 8 μM of 2-amino imidazole compound
smiles,measurement,setting,value
"Nc1ncc(-c2ccc(NC(=O)Nc3ccc(-c4cnc(N)[nH]4)cc3)cc2)[nH]1 [Compound 93, 1,3-bis(4-(2-amino-1H-imidazol-5-yl)phenyl)urea]",Minimum Inhibitory Concentration of Meropenem,A. baumannii (Ab) AR# 83; [8],64 (15) μg/mL
same,Minimum Inhibitory Concentration of Meropenem,A. baumannii (Ab) AR# 35; [8],32 (15) μg/mL
same,Minimum Inhibitory Concentration of Meropenem,[1],1024 (64) μg/mL
same,Minimum Inhibitory Concentration of Meropenem,A. baumannii (Ab) AR# 33; [9],64 (7) μg/mL
same,Minimum Inhibitory Concentration of Meropenem,A. baumannii (Ab) AR# 37; [9],64 (7) μg/mL
same,Minimum Inhibitory Concentration of Meropenem,A. baumannii (Ab) AR# 88; [9],64 (7) μg/mL
same,Minimum Inhibitory Concentration of Meropenem,E. coli AR# 55; [10],128 (16) μg/mL
same,Minimum Inhibitory Concentration of Meropenem,[2],32 (32) μg/mL
same,Minimum Inhibitory Concentration of Meropenem,A. baumannii (Ab) AR# 63; [8],8 (15) μg/mL
same,Minimum Inhibitory Concentration of Meropenem,A. baumannii (Ab) AR# 56; [8],16 (15) μg/mL
same,Minimum Inhibitory Concentration of Meropenem,A. baumannii (Ab) AR# 45; [9],2 (7) μg/mL
same,Minimum Inhibitory Concentration of Meropenem,[3],8 (64) μg/mL
same,Minimum Inhibitory Concentration of Meropenem,A. baumannii (Ab) AR# 52; 4 μM of 2-amino imidazole compound,3 (4) μg/mL
same,Minimum Inhibitory Concentration of Meropenem,A. baumannii (Ab) AR# 70; [9],1 (7) μg/mL
same,Minimum Inhibitory Concentration of Meropenem,[4]; [11],32 (32) μg/mL
same,Minimum Inhibitory Concentration of Meropenem,E. coli AR# 48; [11],16 (32) μg/mL
same,Minimum Inhibitory Concentration of Meropenem,A. baumannii (Ab) AR# 36; [8],16 (15) μg/mL
"Nc1ncc(-c2ccc(NC(=O)Nc3ccc4c(c3)-c3[nH]c(N)nc3CC4)cc2)[nH]1 [Compound 97, 1-(4-(2-amino-1H-imidazol-5-yl)phenyl)-3-(2-amino-4,5-dihydro-1H-naphtho[1,2-d]imidazol-8-yl)urea]",Minimum Inhibitory Concentration of Meropenem,A. baumannii (Ab) AR# 83; [12],16 (8) μg/mL
same,Minimum Inhibitory Concentration of Meropenem,A. baumannii (Ab) AR# 35; [12],2 (8) μg/mL
same,Minimum Inhibitory Concentration of Meropenem,[1],1024 (64) μg/mL
same,Minimum Inhibitory Concentration of Meropenem,A. baumannii (Ab) AR# 33; [10],4 (16) μg/mL
same,Minimum Inhibitory Concentration of Meropenem,A. baumannii (Ab) AR# 37; [12],32 (8) μg/mL
same,Minimum Inhibitory Concentration of Meropenem,A. baumannii (Ab) AR# 88; [10],32 (16) μg/mL
same,Minimum Inhibitory Concentration of Meropenem,E. coli AR# 55; [11],256 (32) μg/mL
same,Minimum Inhibitory Concentration of Meropenem,[2],64 (32) μg/mL
same,Minimum Inhibitory Concentration of Meropenem,A. baumannii (Ab) AR# 63; [12],8 (8) μg/mL
same,Minimum Inhibitory Concentration of Meropenem,A. baumannii (Ab) AR# 56; [12],2 (8) μg/mL
same,Minimum Inhibitory Concentration of Meropenem,A. baumannii (Ab) AR# 45; [12],1 (8) μg/mL
same,Minimum Inhibitory Concentration of Meropenem,[3],16 (64) μg/mL
same,Minimum Inhibitory Concentration of Meropenem,A. baumannii (Ab) AR# 52; 2 μM of 2-amino imidazole compound,2 (2) μg/mL
same,Minimum Inhibitory Concentration of Meropenem,A. baumannii (Ab) AR# 70; [12],0.5 (8) μg/mL
same,Minimum Inhibitory Concentration of Meropenem,[4]; [10],32 (16) μg/mL
same,Minimum Inhibitory Concentration of Meropenem,E. coli AR# 48; [10],128 (16) μg/mL
same,Minimum Inhibitory Concentration of Meropenem,A. baumannii (Ab) AR# 36; [12],1 (8) μg/mL
"C[C@@H](O)[C@H]1C(=O)N2C(C(=O)O)=C(S[C@@H]3CN[C@H](CNS(N)(=O)=O)C3)[C@H](C)[C@H]12 [D, doripenem]",MIC,A. baumannii AB5075; read-out: MIC of doripenem (D),32 µg/mL
same,MIC,[5]; read-out: MIC of doripenem (D),256 µg/mL
same,MIC,[6]; read-out: MIC of doripenem (D),64 µg/mL
same,MIC,[7]; read-out: MIC of doripenem (D),32 µg/mL
"C[C@@H](O)[C@H]1C(=O)N2C(C(=O)O)=C(SCCN=CN)C[C@H]12 [I, imipenem]",MIC,A. baumannii AB5075; read-out: MIC of imipenem (I),32 µg/mL
same,MIC,[5]; read-out: MIC of imipenem (I),128 µg/mL
same,MIC,[6]; read-out: MIC of imipenem (I),64 µg/mL
same,MIC,[7]; read-out: MIC of imipenem (I),32 µg/mL
